Here are results for one compound from patent publication US9249128B2 (priority 2010, dated 2016).

One assay has as its target T1, KIAA1363 (Homo sapiens, UniProt Q6PIU2).
T1 sequence (Q6PIU2 1-408): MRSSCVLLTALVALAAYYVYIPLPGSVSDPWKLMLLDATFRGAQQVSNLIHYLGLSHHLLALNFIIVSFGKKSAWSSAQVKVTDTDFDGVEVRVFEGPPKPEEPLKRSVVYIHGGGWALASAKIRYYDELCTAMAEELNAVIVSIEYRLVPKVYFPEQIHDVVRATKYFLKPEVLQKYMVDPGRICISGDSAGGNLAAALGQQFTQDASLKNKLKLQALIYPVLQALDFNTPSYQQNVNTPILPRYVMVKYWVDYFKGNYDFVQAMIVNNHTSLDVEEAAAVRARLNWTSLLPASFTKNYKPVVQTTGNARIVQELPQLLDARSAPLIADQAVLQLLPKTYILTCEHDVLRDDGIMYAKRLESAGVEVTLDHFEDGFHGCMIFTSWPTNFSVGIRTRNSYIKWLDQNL
Put plainly: Competitive ABPP of tumors explanted from treated mice. It counts as in vivo, mouse. On the set-up: PC3 cancer cells, which have high endogenous KIAA1363 levels; endogenous in cells; host or cells: PC3 (2-acetyl MAGE assay also DU145 and SKOV3). The settings on record: 80 mg/kg oral daily; tumors removed 4 hr after final dose (day 33). On the procedure:
(§1) For ABPP experiments, cell lysate and tissue proteomes were treated with 1 μM FP-rhodamine for 30 min at room temperature (50 μL total reaction volume) as described previously (Nomura et al., 2010). Reactions were quenched with one volume of standard 4×SDS/PAGE loading buffer (reducing), separated by SDS/PAGE (10% acrylamide), and visualized in-gel with a Hitachi FMBio IIe flatbed fluorescence scanner (MiraiBio). Inhibitors were preincubated prior (30 min or 4 h at 37° C. in vitro or in situ, respectively) to the addition of FP-rhodamine.
(§2) Human cancer xenografts were established by transplanting cancer cell lines ectopically into the flank of C.B17 SCID mice (Taconic Farms). Briefly, cells were washed two times with PBS, trypsinized, and harvested in serum-containing medium. Next, the harvested cells were washed two times with serum-free medium and resuspended at a concentration of 2.0×10^4 cells/μL and 100 μL was injected. Growth of the tumors was measured every 3 days with calipers. For chronic JW480 treatment studies, mice were treated with JW480 or vehicle once daily (at approximately the same time everyday) by oral gavage in PEG300 (4 μL/g mouse). The treatments were initiated immediately after ectopic injection of cancer cells.

In a further assay the test system is PC3 tumor xenograft. Put plainly: PC3 tumor xenograft growth in SCID mice. As to conditions: 80 mg/kg, oral, daily, versus vehicle. It counts as in vivo, mouse. On the procedure:
as §2

In assay [1] the test system is serine hydrolase activities detected in the brain proteome. Briefly: Competitive ABPP-MudPIT of brain membrane proteomes from treated mice. It counts as in vivo, mouse. The settings on record: 20 mg/kg, oral gavage, 4 hr; off-target is carboxylesterase ES1. On the procedure:
Competitive ABPP-MudPIT experiments were performed as previously described (Nomura et al., 2010). Briefly, 1 mg of proteome was labeled with 5 μM FP-biotin, followed by solubilization with 1% Triton X-100, denaturation by SDS and heating, avidin precipitation of labeled proteins, and on-bead tryptic digest. Tryptic peptides were then loaded on to a biphasic (strong cation exchange/reverse phase) capillary column and analyzed by two-dimensional liquid chromatography (2D-LC) separation in combination with tandem mass spectrometry using an Agilent 1100 LC system coupled with a ThermoFisher LTQ linear ion trap mass spectrometer. Spectral counts are reported as the average of three samples with the standard error of the mean (SEM).
(§3) JW480 was administered by oral gavage (in PEG300, 4 μL/g mouse) or intraperitoneally (in 18:1:1 v/v/v solution of saline:ethanol:emulphor, 10 μL/g). After the indicated amount of time, mice were anesthetized with isoflurane and killed by decapitation. Tissues were removed and then flash frozen in liquid N2. Tissues were stored at −80° C. until use. Animal experiments were conducted in accordance with the guidelines of the institutional Animal Care and Use Committee of The Scripps Research Institute.

The next assay deals with T2, brain KIAA1363 (Mus musculus, UniProt Q8BLF1).
T2 construct: ABPP analysis of KIAA1363 activity in mouse brain membrane proteome; from tissue; host or cells: mouse brain (membrane fraction)
T2 sequence (Q8BLF1 1-408): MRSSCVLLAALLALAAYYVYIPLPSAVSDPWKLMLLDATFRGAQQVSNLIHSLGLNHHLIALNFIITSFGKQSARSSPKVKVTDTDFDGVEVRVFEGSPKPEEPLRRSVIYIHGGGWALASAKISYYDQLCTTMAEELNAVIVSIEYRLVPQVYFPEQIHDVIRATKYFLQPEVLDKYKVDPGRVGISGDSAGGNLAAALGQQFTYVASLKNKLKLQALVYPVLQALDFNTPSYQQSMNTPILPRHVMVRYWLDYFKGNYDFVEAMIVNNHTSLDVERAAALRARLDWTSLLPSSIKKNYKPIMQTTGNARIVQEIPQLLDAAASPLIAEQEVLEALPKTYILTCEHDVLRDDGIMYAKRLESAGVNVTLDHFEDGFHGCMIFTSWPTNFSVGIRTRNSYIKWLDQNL
Briefly: Competitive ABPP of brain proteomes from inhibitor-treated mice. It counts as in vivo. The protocol:
Tissues were Dounce-homogenized in PBS, pH 7.4, followed by a low-speed spin (1,400 g, 5 min) to remove debris. The supernatant was then subjected to centrifugation (100,000×g, 45 min) to provide the cytosolic fraction in the supernatant and the unsoluble fraction as a pellet. The pellet was washed and resuspended in PBS buffer by sonication. Total protein concentration in each fraction was determined using a protein assay kit (Bio-Rad). Samples were stored at −80° C. until use.
as §1, §3

As for `CC(C)c1ccccc1OC(=O)NCCc1ccc2ccccc2c1` [JW480, 2-isopropylphenyl (2-(naphthalen-2-yl)ethyl)carbamate], the “KIAA1363 activity in explanted tumors” value on KIAA1363 is “completely ablated”. Further, the PC3 tumor growth result in the assay with PC3 tumor xenograft was “significantly impaired”. Further, the “Off-targets among ~30 brain serine hydrolase activities (ABPP-MudPIT)” value in assay [1] was “only a single off-target was observed”. Further, on brain KIAA1363 (1-80 mg/kg, i.p. or oral, 4 hr), the “Selectivity for KIAA1363 in brain proteomes from treated mice (gel-based ABPP)” value is listed as “excellent selectivity”. For the same compound, the “Dose required to completely inactivate brain KIAA1363 in SCID mice” value on brain KIAA1363 (immunedeficient SCID mouse strain, oral) is 80 mg/kg. At brain KIAA1363 (mice, i.p., 4 hr), the “Dose giving complete inhibition of brain KIAA1363, i.p.” value is recorded as 5 mg/kg. Further, the “Dose giving complete inhibition of brain KIAA1363, oral” value on brain KIAA1363 (normal mice, oral, 4 hr) was found to be 20 mg/kg. The “Duration of KIAA1363 inhibition in vivo” value on brain KIAA1363 (single administration 20 mg/kg, oral) was “up to 24 hr”.
